Test results reported in patent US20260151391A1, “TREATMENT OF MITOCHONDRIAL DISEASES WITH sGC STIMULATORS” (Tisento Therapeutics Inc., priority 2022, published 2026).

Tested on: memory disruption induced by MK-801 in male Long Evans rats
Assay: Novel Object Recognition (NOR) test, memory disruption induced by MK-801
Type: in vivo, rat
Details: any dose tested, oral
Procedure: In the present study, a memory saving model was used. MK-801 (Dizocilpine), an uncompetitive antagonist of the NMDA receptor was used to cause deficit of recognition memory. sGC stimulators were evaluated for their efficacy to prevent memory impairment induced by MK-801.
Adult male Long-Evans rats (275-299 gram at arrival from Envigo, Indianapolis, IN) were used in this study. Rats were placed in the experimental rooms and assigned unique identification numbers (tail marks). Rats were housed 2 per cage in polycarbonate cages with filter tops and acclimated for at least 7 days prior to testing. […]
NOR test was conducted in an open-field arena (40×40 cm) placed in a sound-attenuated room under dimmed lighting. […] All training and testing trials were video-taped and scored by an observer blind to treatments.
On Days 1 and 2, rats were allowed to freely explore the arena (no objects inside) for a 5-minute habituation period. […] Each rat was placed in the arena facing the same direction at the same position, and the time spent actively exploring the objects during a 3-minute training period (T1) was recorded. […] Each rat was placed back into the test arena in the presence of one familiar object and one novel object for 5 minutes, and the time spent exploring both objects was recorded. […]

**Q.** How did the “obvious side effects in NOR study” value turn out when `Oc1nc(-c2cn3ccnc3c(Cc3cc(F)ccc3F)n2)ncc1F` [Compound I-20, 5-fluoro-2-(8-(2,5-difluorobenzyl)imidazo[1,2-a]pyrazin-6-yl)pyrimidin-4-ol] was run?
**A.** None of the rats in this study showed obvious side effects
